Consider 20 molecules from US9902725B2, “Heterocyclic derivatives as RORgamma modulators” (GENFIT, priority 2014, dated 2018).

Test [1] has as its target T1, RORγt ligand-binding domain (RORγt-LBD) (Homo sapiens, UniProt P51449).
T1 construct: 20 nM recombinantly expressed RORγ-LBD fused to GST
T1 sequence (P51449 269-508 limits assumed): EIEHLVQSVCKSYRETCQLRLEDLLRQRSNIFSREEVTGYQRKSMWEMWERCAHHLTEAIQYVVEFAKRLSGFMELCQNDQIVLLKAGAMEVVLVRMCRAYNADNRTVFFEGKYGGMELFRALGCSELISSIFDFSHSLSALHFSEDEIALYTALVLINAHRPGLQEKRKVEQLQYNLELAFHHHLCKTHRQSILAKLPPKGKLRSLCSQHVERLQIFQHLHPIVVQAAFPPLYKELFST
Description: Time-resolved FRET (TR-FRET) RORγt coactivator assay. The test is classed as biochemical. The conditions noted are these: GST-RORγ-LBD, biotinylated RIP140 peptide, coactivator displacement.

A further test addresses T2, human RORγt (Homo sapiens, UniProt P51449).
T2 sequence (P51449 1-497 isoform P51449-2): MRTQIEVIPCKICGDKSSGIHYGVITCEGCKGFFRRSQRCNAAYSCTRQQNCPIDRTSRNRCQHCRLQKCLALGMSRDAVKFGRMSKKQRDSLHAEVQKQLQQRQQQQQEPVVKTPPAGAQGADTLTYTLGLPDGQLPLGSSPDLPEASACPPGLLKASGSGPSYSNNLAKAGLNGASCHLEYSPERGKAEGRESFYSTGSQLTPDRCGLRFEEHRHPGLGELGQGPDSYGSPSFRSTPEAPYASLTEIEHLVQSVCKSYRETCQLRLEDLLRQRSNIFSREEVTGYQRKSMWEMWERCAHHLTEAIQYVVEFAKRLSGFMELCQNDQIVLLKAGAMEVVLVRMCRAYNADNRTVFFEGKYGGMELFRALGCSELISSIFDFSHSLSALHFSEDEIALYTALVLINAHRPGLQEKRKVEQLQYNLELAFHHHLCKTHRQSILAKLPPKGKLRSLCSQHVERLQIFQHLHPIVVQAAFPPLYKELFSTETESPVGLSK
The experiment in a line: IL-17 secretion from EL4 murine lymphoma overexpressing human RORγt. The conditions noted are these: IL-17 secretion inhibition, PMA and ionomycin stimulation, 24 h. More on the design: expressed in transfected cells; host or cells: EL-4 murine lymphoma. The test is classed as cell-based. On the procedure:
Murine EL-4 lymphoma cell line overexpressing human RORγt was used in this functional assay to assess compound ability to inhibit IL-17 cytokine secretion.
EL-4 cells are maintained in a standard culture medium RPMI supplemented with 10% fetal calf serum, 1% sodium pyruvate, 1% essential amino acids and 1% antibiotics at 37° C. in a humidified atmosphere of 5% CO2 and 95% air. Culture medium was changed every 2 days. EL4 cells were transfected with a plasmid encoding hRORγt (sequence identical to published sequence NM 001001523). […] Briefly, 1 μg of DNA/1 million cells was served to transfect EL-4 cells. Cell/DNA suspension was transferred into certified cuvette and the electroporation of RORγt plasmid was carried out using appropriate Nucleofector® program.
Cells were seeded in 96 well plates at a density of 150000 cells/well then treated with compounds of this invention at indicated concentrations and incubated for 24 hours at 37° C. in a humidified atmosphere of 5% CO2 and 95% air. EL-4 cells were pretreated with test compounds (RORγ modulators) and stimulated with PMA (10 ng/mL) and ionomycin (1 μM final concentration) in the presence of test compound concentrations for additional 24 h at 37° C. in a humidified atmosphere of 5% CO2 and 95% air. Subsequently, supernatants were collected (after centrifugation at 300 g for 10 minutes) to determine the concentrations of IL-17 by HTRF (CisBio, France) or ELISA (R&D Systems Europe) according to the manufacturer's protocols.

In general, IC50 refers to the concentration that gives 50% inhibition. Low values mean greater potency, high ones weaker potency. As to `COC(=O)Cc1c[nH]c2ccc(CC(=O)NC(c3ccccc3)c3ccc(C(F)(F)F)cc3N3CCCC3)cc12` (stereo not shown) [Cpd. 88, methyl 2-{5-[({phenyl[2-(pyrrolidin-1-yl)-4-(trifluoromethyl)phenyl]methyl}carbamoyl)methyl]-1H-indol-3-yl}acetate], the IC50 in test [1] was less than 1 µM; on human RORγt, 1 to 10 µM.

`CC(C)(C)OC(=O)CCc1c[nH]c2ccc(CC(=O)NC(c3ccccc3)c3ccc(Cl)cc3N3CCCC3)cc12` (stereo not shown) [Cpd. 90, tert-butyl 3-{5-[({[4-chloro-2-(pyrrolidin-1-yl)phenyl](phenyl)methyl}carbamoyl)methyl]-1H-indol-3-yl}propanoate]: the results for the IC50 (in test [1]; at human RORγt) were less than 1 µM and 10 to 30 µM, respectively.

`COC(=O)Cc1c[nH]c2ccc(CC(=O)NC(c3ccccc3)c3ccc(C)cc3N3CCOCC3)cc12` (stereo not shown) [Cpd. 96, methyl 2-{5-[({[4-methyl-2-(morpholin-4-yl)phenyl](phenyl)methyl}carbamoyl)methyl]-1H-indol-3-yl}acetate]: the IC50 was less than 1 µM in test [1] and 1 to 10 µM on human RORγt.

For `COc1cc(C)ccc1C(NC(=O)Cc1ccc2[nH]cc(CCC(=O)OC(C)(C)C)c2c1)c1ccccc1` (stereo not shown) [Cpd. 98, tert-butyl 3-[5-({[(2-methoxy-4-methylphenyl)(phenyl)methyl]carbamoyl}methyl)-1H-indol-3-yl]propanoate], the IC50 was less than 1 µM in test [1] and 1 to 10 µM against human RORγt.

For the molecule `COc1ccc(C(NC(=O)Cc2ccc3[nH]cc(CCC(=O)OC(C)(C)C)c3c2)c2ccccc2)c(N2CCCC2)c1` (stereo not shown) [Cpd. 108, tert-butyl 3-{5-[({[4-methoxy-2-(pyrrolidin-1-yl)phenyl](phenyl)methyl}carbamoyl)methyl]-1H-indol-3-yl}propanoate], the IC50 (in test [1]; against human RORγt) was less than 1 µM throughout.

Consider `COc1ccc(C(NC(=O)Cc2ccc3[nH]cc(CCC(=O)OC(C)(C)C)c3c2)c2ccccc2)c(N2CCCCC2)c1` (stereo not shown) [Cpd. 110, tert-butyl 3-{5-[({[4-methoxy-2-(piperidin-1-yl)phenyl](phenyl)methyl}carbamoyl)methyl]-1H-indol-3-yl}propanoate], for which the figures for the IC50 (in test [1]; at human RORγt) were less than 1 µM and 1 to 10 µM, respectively.

As to `CCNc1cc(C)ccc1C(NC(=O)Cc1ccc2[nH]cc(CCC(=O)OC(C)(C)C)c2c1)c1ccccc1` (stereo not shown) [Cpd. 119, tert-butyl 3-{5-[({[2-(ethylamino)-4-methylphenyl](phenyl)methyl}carbamoyl)methyl]-1H-indol-3-yl}propanoate], the values for the IC50 (in test [1]; at human RORγt) were less than 1 µM and 1 to 10 µM, respectively.

Take `Cc1ccc(C(NC(=O)Cc2ccc3[nH]cc(CCC(=O)OC(C)(C)C)c3c2)c2ccccc2)c(NC(C)C)c1` (stereo not shown) [Cpd. 125, tert-butyl 3-(5-{[({4-methyl-2-[(propan-2-yl)amino]phenyl}(phenyl)methyl)carbamoyl]methyl}-1H-indol-3-yl)propanoate]: the concentration for half-maximal inhibition (IC50) in test [1] is less than 1 µM; at human RORγt it was 1 to 10 µM.

As for `COc1ccc(C(NC(=O)Cc2ccc3[nH]cc(CCC(=O)OC(C)(C)C)c3c2)c2ccccc2)c(N2CCCCCC2)c1` (stereo not shown) [Cpd. 141, tert-butyl 3-{5-[({[2-(azepan-1-yl)-4-methoxyphenyl](phenyl)methyl}carbamoyl)methyl]-1H-indol-3-yl}propanoate], the values for the IC50 (in test [1]; against human RORγt) were less than 1 µM and 1 to 10 µM, respectively.

Take `Cc1ccc(C(NC(=O)Cc2ccc3[nH]cc(CCC(=O)OC(C)(C)C)c3c2)c2ccccc2)c(OC(C)C)c1` (stereo not shown) [Cpd. 145, tert-butyl 3-{5-[({[4-methyl-2-(propan-2-yloxy)phenyl](phenyl)methyl}carbamoyl)methyl]-1H-indol-3-yl}propanoate]: the results for the IC50 (in test [1]; against human RORγt) were less than 1 µM and 1 to 10 µM, respectively.

Take `CCOC(=O)CCc1n[nH]c2ccc(CC(=O)NC(c3ccccc3)c3ccc(C)cc3OC(C)C)cc12` (stereo not shown) [Cpd. 159, ethyl 3-{5-[({[4-methyl-2-(propan-2-yloxy)phenyl](phenyl)methyl}carbamoyl)methyl]-1H-indazol-3-yl}propanoate]: the results for the IC50 (in test [1]; against human RORγt) were less than 1 µM and 1 to 10 µM, respectively.

`CCOC(=O)CCCc1c[nH]c2ccc(CC(=O)NC(c3ccccc3)c3ccccc3N3CCCCC3)cc12` (stereo not shown) [Cpd. 211, ethyl 4-{5-[({phenyl[2-(piperidin-1-yl)phenyl]methyl}carbamoyl)methyl]-1H-indol-3-yl}butanoate]: the IC50 was less than 1 µM in test [1] and 1 to 10 µM at human RORγt.

Regarding `CCOC(=O)CCCCc1c[nH]c2ccc(CC(=O)NC(c3ccccc3)c3ccccc3N3CCCCC3)cc12` (stereo not shown) [Cpd. 216, ethyl 5-{5-[({phenyl[2-(piperidin-1-yl)phenyl]methyl}carbamoyl)methyl]-1H-indol-3-yl}pentanoate], the IC50 in test [1] is less than 1 µM; at human RORγt, 1 to 10 µM.

With `CC(C)(C)OC(=O)CCc1c[nH]c2ccc(NC(=O)NC(c3ccccc3)c3ccccc3N3CCCCC3)cc12` (stereo not shown) [compound 55, tert-butyl 3-{5-[({phenyl[2-(piperidin-1-yl)phenyl]methyl}carbamoyl)amino]-1H-indol-3-yl}propanoate], the IC50 in test [1] was 10 to 30 µM; against human RORγt, 1 to 10 µM.

Turning to `O=C(O)CCc1c[nH]c2ccc(CC(=O)NC(c3ccccc3)c3cc(Cl)ccc3N3CCCCC3)cc12` (stereo not shown) [compound 62, 3-{5-[({[5-chloro-2-(piperidin-1-yl)phenyl](phenyl)methyl}carbamoyl)methyl]-1H-indol-3-yl}propanoic acid], the IC50 in test [1] was less than 1 µM; against human RORγt it was 1 to 10 µM.

Regarding `Cc1ccc(C(NC(=O)Cc2ccc3[nH]cc(CC(=O)O)c3c2)c2ccccc2)c(N2CCCC2)c1` (stereo not shown) [compound 65, 2-{5-[({[4-methyl-2-(pyrrolidin-1-yl)phenyl](phenyl)methyl}carbamoyl)methyl]-1H-indol-3-yl}acetic acid], the values for the IC50 (in test [1]; at human RORγt) were less than 1 µM and 1 to 10 µM, respectively.

As for `Cc1ccc(C(NC(=O)Cc2ccc3[nH]cc(CC(=O)O)c3c2)c2ccccc2)c(N2CCCCC2)c1` (stereo not shown) [compound 87, 2-{5-[({[4-methyl-2-(piperidin-1-yl)phenyl](phenyl)methyl}carbamoyl)methyl]-1H-indol-3-yl}acetic acid], the IC50 was less than 1 µM in test [1] and 1 to 10 µM against human RORγt.

Take `O=C(O)CCc1c[nH]c2ccc(CC(=O)NC(c3ccccc3)c3ccc(Cl)cc3N3CCCC3)cc12` (stereo not shown) [compound 91, 3-{5-[({[4-chloro-2-(pyrrolidin-1-yl)phenyl](phenyl)methyl}carbamoyl)methyl]-1H-indol-3-yl}propanoic acid]: the figures for the IC50 (in test [1]; against human RORγt) were less than 1 µM and 1 to 10 µM, respectively.

On to `CC(C)CC(NC(=O)Cc1ccc2[nH]cc(CCC(=O)O)c2c1)c1cccc2ccccc12` (stereo not shown) [compound 105, 3-[5-({[3-methyl-1-(naphthalen-1-yl)butyl]carbamoyl}methyl)-1H-indol-3-yl]propanoic acid], for which the IC50 in test [1] is less than 1 µM; against human RORγt it was 1 to 10 µM.

`COc1ccc(C(NC(=O)Cc2ccc3[nH]cc(CCC(=O)O)c3c2)c2ccccc2)c(N2CCCC2)c1` (stereo not shown) [compound 109, 3-{5-[({[4-methoxy-2-(pyrrolidin-1-yl)phenyl](phenyl)methyl}carbamoyl)methyl]-1H-indol-3-yl}propanoic acid]: the figures for the IC50 (in test [1]; on human RORγt) were less than 1 µM and 1 to 10 µM, respectively.
